Source: article PMC10992699, “Comparative structure activity and target exploration of 1,2-diphenylethynes in Haemonchus contortus and Caenorhabditis elegans” (International Journal for Parasitology: Drugs and Drug …, 2024)
Read-outs that look alike come from different tables or passages of the source.

Experiments:
PGP-1 = biological target: T1, PGP-1 (Caenorhabditis elegans, UniProt P34712); assay: Thermal proteome profiling (TPP); format: binding; conditions: compound 50 μM, C. elegans lysate, 37-67 °C
T1 construct: from tissue; host or cells: whole-worm lysate of C. elegans N2 (young adults / L4s), NP-40 extract

UBL-5 = biological target: T2, UBL-5 (Caenorhabditis elegans, UniProt P91302); assay: Thermal proteome profiling (TPP); format: binding; conditions: compound 50 μM, C. elegans lysate, 37-67 °C
T2 construct: from tissue; host or cells: whole-worm lysate of C. elegans N2 (young adults / L4s)

C. elegans young adults [1] = test system: C. elegans young adults; design: method as in Taki et al., 2021a; conditions: previous HitFinder library screen, ref Taki et al., 2021a, cited from earlier work
B0361.6 = biological target: T3, B0361.6 (Caenorhabditis elegans, UniProt Q10950); assay: Thermal proteome profiling (TPP); format: binding; conditions: compound 50 μM, C. elegans lysate, 37-67 °C
T3 construct: from tissue; host or cells: whole-worm lysate of C. elegans N2 (young adults / L4s)

C. elegans young adults [2] = assay: C. elegans young adult motility dose-response assay; format: cell-based, Caenorhabditis elegans; conditions: Caenorhabditis elegans, 40 h, young adults; 40 h incubation; three independent assays in triplicate; read-out: Worm motility IC50 ± SD, C. elegans young adults
Method: The eggs were then washed five times with 15 mL of sterile M9 buffer (centrifugation at 500×g, 2 min). […] were collected from plates and washed twice with sterile M9 buffer by centrifugation (500×g, 2 min) to remove E. coli OP50, and then resuspended to a concentration of 100 larvae per 50 μL in sterile (autoclaved) LB*. The dose-response assay for C. elegans followed a well-established protocol ([Taki et al., 2021a]) and was employed to evaluate the potency of hit compounds against this nematode. […] Two compounds, monepantel (ZolvixTM; Elanco, Australia) and moxidectin ([…], France) were used as positive controls and prepared in the same manner as the test compounds. […] The test compounds and positive control compounds were arrayed in triplicate across individual flat-bottom 96-well microplates (cat. no. 3596; Corning, Corning, NY, USA), with six wells on each plate containing the negative control. Added to each well were 100 C. elegans in 50 μL of LB* to give a final volume of 100 μL. Plates were then placed in an incubator ([…], model no. IMP180, Thermo Fisher Scientific, USA) at 20 °C for 40 h. […] Over 15 min, disturbance of an infrared beam in individual wells was recorded as an 'activity count'. Raw 'activity counts' for each well were normalised to the negative controls. The compound concentrations were log10-transformed and fitted using a variable slope four-parameter equation, using the ordinary least squares fit model, employing the program Prism (v.9.1.0 GraphPad Software, San Diego, CA, USA).

[3] = test system: human hepatoma (HepG2) cells; assay: HepG2 mitotoxicity (galactose medium, crystal violet staining); format: cell-based; conditions: 48 h
Method: The mitotoxicity of UMW-9729 and six key derivatives (12, 14, 15, 16, 18 and 25) on human hepatoma (HepG2) cells was evaluated as described previously using an established protocol ([Swiss and Will, 2011]; [Kamalian et al., 2015]; [Śliwka et al., 2016]). Test compounds were serially-diluted (7-points, 2-fold serial dilution, 50 μM top concentration) in DMEM (Thermo Fisher Scientific, USA) with GlutaMax™ supplemented with 25 mM D-galactose, 10 % heat-inactivated FBS, 100 IU/mL of penicillin, 100 μg/mL of streptomycin and 0.25 μg/mL of amphotericin B (denoted DMEM*). Monepantel and moxidectin (prepared in the same manner as the test compounds) were included as reference compounds. M-666 ([…]; [Le et al., 2018]) was used as a positive control; 0.25 % DMSO was used as a negative control. HepG2 cells were seeded into wells of a 96-well plate in 80 μL of DMEM* (at 1 × 10^5 cells per well) and allowed to adhere for 16 h (5 % (v/v) CO2, 37 °C, >90% humidity)prior to incubation with individual compounds, at a final volume of 100 μL. […] Following 48 h of incubation with compounds, cell viability was determined by crystal violet staining ([Śliwka et al., 2016]). The absorbance (595 nm) of treated cells was normalised using the negative-controls to calculate the cell viability. […]

[4] = HepG2 cytotoxicity (CellTiter-Glo); format: cell-based; conditions: human, HepG2 cells, read-out: half-maximal cytotoxic concentration (CC50)
Method: The cytotoxicity of UMW-9729 and six key derivatives (12, 14, 15, 16, 18 and 25) on human hepatoma (HepG2) cells was evaluated as described previously ([Gilson et al., 2017]). In short, HepG2 cells were first cultured (in an incubator at 5 % (v/v) CO2, 37 °C, >90 % humidity) in Dulbecco's modified Eagle's medium (DMEM) supplemented with 5 % foetal bovine serum (FBS). Test compounds were serially-diluted (10-points, 2-fold serial dilution, top concentration of 50 μM) in DMEM + 10 % FBS, adjusted to a 0.5 % DMSO concentration and arrayed across a 384-well plate. Bortezomib (10 μM) was used as a positive control; 0.5 % DMSO was used as a negative control. HepG2 cells (1 × 10^3 cells per 50 μL of DMEM + 10 % FBS) were then seeded into wells of the assay plate; plates were the incubated (5 % (v/v) CO2, 37 °C, >90 % humidity) for 48 h. Cell proliferation was subsequently determined using CellTiter-Glo (Promega) and normalised using the negative-controls to calculate as a percentage. All compounds were tested in duplicate. The half-maximal cytotoxic (CC50) values were calculated by the Dotmatics (v.5.3) and Spotfire (v.7.11.1) software using a nonlinear regression four-parameter fit analysis.

T3 sequence (Q10950 whole entry): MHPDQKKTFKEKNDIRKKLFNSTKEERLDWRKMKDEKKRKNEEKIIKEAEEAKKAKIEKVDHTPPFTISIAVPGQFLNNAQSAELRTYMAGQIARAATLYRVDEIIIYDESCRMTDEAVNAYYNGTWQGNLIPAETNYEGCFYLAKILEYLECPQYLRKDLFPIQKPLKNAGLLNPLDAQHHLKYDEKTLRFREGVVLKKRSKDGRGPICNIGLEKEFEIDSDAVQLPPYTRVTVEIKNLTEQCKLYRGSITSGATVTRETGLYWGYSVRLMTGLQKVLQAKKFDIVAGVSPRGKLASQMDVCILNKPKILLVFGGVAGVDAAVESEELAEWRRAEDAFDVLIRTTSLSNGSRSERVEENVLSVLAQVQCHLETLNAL
T2 sequence (P91302 whole entry): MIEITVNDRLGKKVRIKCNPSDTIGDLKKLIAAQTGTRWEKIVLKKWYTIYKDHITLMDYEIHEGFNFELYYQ
T1 sequence (P34712 whole entry): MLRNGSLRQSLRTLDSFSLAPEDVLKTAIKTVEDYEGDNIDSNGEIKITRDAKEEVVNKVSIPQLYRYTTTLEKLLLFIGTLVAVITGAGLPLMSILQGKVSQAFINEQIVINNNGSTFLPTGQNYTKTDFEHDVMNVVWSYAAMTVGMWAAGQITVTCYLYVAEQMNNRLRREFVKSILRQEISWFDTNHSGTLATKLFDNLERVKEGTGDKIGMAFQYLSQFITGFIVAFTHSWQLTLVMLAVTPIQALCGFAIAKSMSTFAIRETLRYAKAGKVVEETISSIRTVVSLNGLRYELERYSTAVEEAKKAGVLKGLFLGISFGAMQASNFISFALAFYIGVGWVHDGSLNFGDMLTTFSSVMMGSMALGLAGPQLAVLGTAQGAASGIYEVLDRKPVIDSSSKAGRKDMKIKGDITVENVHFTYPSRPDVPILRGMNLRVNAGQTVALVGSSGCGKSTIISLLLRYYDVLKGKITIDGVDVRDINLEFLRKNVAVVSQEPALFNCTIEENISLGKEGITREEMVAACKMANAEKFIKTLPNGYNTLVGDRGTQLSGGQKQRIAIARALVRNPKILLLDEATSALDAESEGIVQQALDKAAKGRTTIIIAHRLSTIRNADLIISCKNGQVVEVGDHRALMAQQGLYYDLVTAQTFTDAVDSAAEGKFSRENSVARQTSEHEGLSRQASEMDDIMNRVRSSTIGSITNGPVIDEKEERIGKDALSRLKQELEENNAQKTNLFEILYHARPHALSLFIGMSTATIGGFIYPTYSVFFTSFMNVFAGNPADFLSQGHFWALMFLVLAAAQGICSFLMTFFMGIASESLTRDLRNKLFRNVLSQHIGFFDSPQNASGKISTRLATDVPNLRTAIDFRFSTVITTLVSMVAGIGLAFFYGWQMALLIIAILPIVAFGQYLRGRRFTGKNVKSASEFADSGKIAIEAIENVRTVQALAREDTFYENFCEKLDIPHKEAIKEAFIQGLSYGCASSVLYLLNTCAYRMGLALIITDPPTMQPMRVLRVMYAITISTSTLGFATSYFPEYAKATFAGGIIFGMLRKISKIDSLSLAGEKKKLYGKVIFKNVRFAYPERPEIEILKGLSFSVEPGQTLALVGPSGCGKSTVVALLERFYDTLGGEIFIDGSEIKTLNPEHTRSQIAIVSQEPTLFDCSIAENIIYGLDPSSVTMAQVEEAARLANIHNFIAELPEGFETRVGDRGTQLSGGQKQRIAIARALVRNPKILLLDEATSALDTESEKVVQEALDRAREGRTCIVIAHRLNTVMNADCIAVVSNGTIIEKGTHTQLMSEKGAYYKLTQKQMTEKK

Question: For `C(#Cc1ccc(-c2ccn[nH]2)cc1)c1ccccc1` [UMW-9729], which F-statistic (PGP-1; NPARC) is on record?
Answer: 27.4

Question: And the “thermal stability of protein in the presence of compound” value (from here on “thermal stability of protein”) (PGP-1)?
Answer: stabilised

Question: What about the F-statistic (UBL-5; NPARC) of the same compound?
Answer: 34.8

Question: What about the “thermal stability of protein” value (UBL-5) of the same compound?
Answer: stabilised

Question: What about the “maximum motility inhibition, young adults of C. elegans” value (C. elegans young adults [1]) of the same compound?
Answer: 88.9%

Question: And the IC50 (C. elegans young adults [1]; read-out: half-maximal inhibitory concentration (IC50), motility of young adults of C. elegans)?
Answer: 5.6 µM

Question: And the F-statistic (B0361.6; NPARC)?
Answer: 24.2

Question: What about the “thermal stability of protein” value (B0361.6) of the same compound?
Answer: stabilised

Question: And the IC50 (C. elegans young adults [2])?
Answer: 14 ± 2.9 µM

Question: What about the “half-maximal mitotoxic concentration (MC50)” value [3] of the same compound?
Answer: > 40 µM

Question: And the CC50 at 48 h [4]?
Answer: > 40 µM
